Measurements taken from ChEMBL document CHEMBL3431459, “Roche carnitine palmitoyltransferase modulator screening data (supplementary data associated with the publication CHEMBL2216752)”.
Values after ≈ are worked out from the molar mass of the structure shown.

Key:
[1] = SUPPLEMENTARY: Lyophilisation Solubility Assay (LYSA); assay type: physicochemical; conditions: read-out: Kinetic_solubility
[2] = SUPPLEMENTARY: PAMPA permeability assay; assay type: physicochemical; conditions: read-out: Permeability
[3] = SUPPLEMENTARY: Lipophilicity (log D) Determination by high-throughput shake-flask; assay type: physicochemical; conditions: octanol/water
[4] = molecular target: T1, Carnitine O-palmitoyltransferase 2, mitochondrial (Rattus norvegicus, UniProt P18886); experiment: (§1) SUPPLEMENTARY: Inhibition of Carnitine palmitoyltransferase 2
T1 sequence (P18886 whole entry): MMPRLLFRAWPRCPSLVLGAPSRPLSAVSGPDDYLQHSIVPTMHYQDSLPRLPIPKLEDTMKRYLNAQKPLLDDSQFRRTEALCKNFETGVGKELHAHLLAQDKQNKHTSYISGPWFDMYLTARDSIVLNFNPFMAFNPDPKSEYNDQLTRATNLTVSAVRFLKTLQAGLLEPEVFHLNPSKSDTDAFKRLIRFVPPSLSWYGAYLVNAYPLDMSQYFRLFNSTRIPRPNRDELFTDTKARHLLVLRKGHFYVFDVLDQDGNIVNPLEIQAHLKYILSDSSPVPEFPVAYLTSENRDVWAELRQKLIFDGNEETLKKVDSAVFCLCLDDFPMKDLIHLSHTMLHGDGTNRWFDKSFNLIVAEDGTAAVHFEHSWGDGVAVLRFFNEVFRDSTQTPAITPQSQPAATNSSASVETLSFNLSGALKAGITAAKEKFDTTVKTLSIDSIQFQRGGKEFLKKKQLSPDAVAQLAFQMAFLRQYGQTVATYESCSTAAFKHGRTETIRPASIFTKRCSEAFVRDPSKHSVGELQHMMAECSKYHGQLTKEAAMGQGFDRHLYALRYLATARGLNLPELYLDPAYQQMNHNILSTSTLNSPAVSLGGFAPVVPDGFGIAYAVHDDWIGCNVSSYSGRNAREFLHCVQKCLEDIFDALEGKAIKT

[5] = molecular target: T2, Carnitine O-palmitoyltransferase 2, mitochondrial (Homo sapiens, UniProt P23786); experiment: as §1
T2 sequence (P23786 whole entry): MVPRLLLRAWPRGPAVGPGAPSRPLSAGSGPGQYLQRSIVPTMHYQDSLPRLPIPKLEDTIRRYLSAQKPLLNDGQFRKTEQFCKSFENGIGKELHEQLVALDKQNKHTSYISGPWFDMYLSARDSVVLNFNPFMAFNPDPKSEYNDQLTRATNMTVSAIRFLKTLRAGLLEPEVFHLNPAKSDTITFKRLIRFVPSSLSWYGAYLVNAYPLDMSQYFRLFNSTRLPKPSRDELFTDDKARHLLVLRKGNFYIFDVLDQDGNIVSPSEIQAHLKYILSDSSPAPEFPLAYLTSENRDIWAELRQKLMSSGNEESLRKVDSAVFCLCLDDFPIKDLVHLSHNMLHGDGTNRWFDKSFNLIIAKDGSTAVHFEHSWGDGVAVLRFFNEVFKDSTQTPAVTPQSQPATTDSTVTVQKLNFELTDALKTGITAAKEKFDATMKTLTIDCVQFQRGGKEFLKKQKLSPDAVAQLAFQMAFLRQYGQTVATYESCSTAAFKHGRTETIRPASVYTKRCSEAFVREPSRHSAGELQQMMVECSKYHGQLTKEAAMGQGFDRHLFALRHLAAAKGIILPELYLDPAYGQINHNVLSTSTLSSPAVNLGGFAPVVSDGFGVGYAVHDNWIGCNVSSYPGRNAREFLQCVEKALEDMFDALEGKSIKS

[6] = molecular target: T3, Carnitine O-palmitoyltransferase 1, liver isoform (Homo sapiens, UniProt P50416); experiment: (§2) SUPPLEMENTARY: Inhibition of Carnitine palmitoyltransferase 1, liver isoform
T3 sequence (P50416 whole entry): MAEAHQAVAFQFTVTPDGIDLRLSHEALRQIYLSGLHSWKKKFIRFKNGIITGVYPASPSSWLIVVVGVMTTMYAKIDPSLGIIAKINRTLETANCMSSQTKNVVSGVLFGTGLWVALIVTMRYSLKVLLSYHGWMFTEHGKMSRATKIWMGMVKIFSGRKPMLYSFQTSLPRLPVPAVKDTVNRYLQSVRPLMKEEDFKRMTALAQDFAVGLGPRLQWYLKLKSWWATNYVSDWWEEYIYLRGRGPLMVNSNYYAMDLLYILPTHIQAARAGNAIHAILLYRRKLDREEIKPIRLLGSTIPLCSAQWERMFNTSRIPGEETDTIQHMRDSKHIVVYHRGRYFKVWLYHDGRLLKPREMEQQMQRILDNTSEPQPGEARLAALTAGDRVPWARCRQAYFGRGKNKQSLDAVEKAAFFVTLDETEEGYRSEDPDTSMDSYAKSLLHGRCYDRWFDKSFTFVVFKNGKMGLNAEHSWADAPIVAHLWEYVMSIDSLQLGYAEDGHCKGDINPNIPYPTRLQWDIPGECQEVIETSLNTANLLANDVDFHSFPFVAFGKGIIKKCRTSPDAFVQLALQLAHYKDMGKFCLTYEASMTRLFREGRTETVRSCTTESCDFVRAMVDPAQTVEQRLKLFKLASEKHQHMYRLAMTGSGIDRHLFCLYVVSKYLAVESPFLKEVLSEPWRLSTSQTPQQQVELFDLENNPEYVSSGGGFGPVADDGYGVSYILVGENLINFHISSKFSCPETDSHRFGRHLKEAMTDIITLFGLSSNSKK

[7] = molecular target: T4, Carnitine O-palmitoyltransferase 1, liver isoform (Rattus norvegicus, UniProt P32198); experiment: as §2
T4 sequence (P32198 whole entry): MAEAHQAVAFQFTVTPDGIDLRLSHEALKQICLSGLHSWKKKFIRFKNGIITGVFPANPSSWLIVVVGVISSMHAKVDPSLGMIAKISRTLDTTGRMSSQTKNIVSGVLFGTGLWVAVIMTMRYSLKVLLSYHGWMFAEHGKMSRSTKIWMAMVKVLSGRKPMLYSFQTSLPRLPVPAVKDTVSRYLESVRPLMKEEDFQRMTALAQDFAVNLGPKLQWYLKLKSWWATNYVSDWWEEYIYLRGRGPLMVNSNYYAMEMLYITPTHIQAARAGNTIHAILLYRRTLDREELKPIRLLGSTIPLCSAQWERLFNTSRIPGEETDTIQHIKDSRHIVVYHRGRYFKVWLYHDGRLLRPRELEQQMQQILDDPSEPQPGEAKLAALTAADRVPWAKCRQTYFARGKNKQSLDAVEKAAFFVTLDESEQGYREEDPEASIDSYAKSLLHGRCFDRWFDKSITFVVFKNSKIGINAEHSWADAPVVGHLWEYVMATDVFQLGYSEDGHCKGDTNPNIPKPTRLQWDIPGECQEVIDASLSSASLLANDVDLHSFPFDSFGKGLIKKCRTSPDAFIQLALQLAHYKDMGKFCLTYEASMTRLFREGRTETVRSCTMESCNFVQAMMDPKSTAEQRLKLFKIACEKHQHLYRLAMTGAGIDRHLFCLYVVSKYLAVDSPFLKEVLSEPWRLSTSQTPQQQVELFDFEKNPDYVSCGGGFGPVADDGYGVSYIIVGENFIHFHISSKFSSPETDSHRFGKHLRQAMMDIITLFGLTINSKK

[8] = molecular target: T5, Carnitine O-palmitoyltransferase 1, muscle isoform (Homo sapiens, UniProt Q92523); experiment: SUPPLEMENTARY: Inhibition of Carnitine palmitoyltransferase 1, muscle isoform; design: species or system Muscle tissue
T5 sequence (Q92523 whole entry): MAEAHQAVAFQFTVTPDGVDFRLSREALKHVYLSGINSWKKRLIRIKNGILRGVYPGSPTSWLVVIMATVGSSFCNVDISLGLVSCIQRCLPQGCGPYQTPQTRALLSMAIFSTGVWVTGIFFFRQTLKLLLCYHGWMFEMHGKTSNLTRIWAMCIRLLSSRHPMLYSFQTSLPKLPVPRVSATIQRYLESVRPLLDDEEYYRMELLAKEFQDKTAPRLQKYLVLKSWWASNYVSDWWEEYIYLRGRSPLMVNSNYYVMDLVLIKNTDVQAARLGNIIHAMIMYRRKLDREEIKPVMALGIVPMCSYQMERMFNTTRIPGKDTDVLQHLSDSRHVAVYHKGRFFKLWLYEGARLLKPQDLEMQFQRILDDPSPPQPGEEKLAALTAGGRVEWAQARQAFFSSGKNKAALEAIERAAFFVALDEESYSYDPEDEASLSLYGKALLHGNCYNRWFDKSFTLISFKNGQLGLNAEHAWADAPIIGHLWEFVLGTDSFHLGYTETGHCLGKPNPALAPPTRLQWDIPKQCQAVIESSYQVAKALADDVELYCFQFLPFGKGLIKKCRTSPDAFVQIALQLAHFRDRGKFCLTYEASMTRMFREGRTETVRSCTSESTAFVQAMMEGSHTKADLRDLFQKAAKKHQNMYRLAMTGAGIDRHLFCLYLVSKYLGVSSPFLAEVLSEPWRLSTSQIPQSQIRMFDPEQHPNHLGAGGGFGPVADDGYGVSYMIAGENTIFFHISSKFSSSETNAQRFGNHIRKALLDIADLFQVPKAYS

solubility kinetic [1]	Papp [2]	logD [3]	IC50 [4]	IC50 [5]	IC50 [6]	IC50 [7]	IC50 [8]	Compound
31 µg/mL (≈ 67 µM)	1.49 ×10⁻⁶ cm/s	3.3	13200 nM	19500 nM	40.2 nM	1040 nM	> 100000 nM	CCN(CC)C(=O)c1ccc(-c2noc([C@H]3CCCCN3C(=O)COc3ccccc3)n2)cc1
12 µg/mL (≈ 24.1 µM)	0.47 ×10⁻⁶ cm/s	2.36	4270 nM	579 nM	71.6 nM	51.8 nM	2320 nM	COc1ccc(Cl)cc1S(=O)(=O)c1cn(C)c2ccc(C(=O)Nc3ccc(C(=O)O)cc3)cc12
8 µg/mL (≈ 18.5 µM)	1.7 ×10⁻⁶ cm/s	2.92	> 100000 nM	15000 nM	98.6 nM	98.1 nM	> 100000 nM	O=C(COc1ccccc1)N1CCCC[C@@H]1c1noc(-c2ccc(-n3cnnn3)cc2)n1
< 1 µg/mL	0.4 ×10⁻⁶ cm/s	> 3	> 100000 nM	> 100000 nM	168 nM	172 nM	> 100000 nM	CCN1C(=O)CC(C)(C)c2ccc(-c3nc([C@H]4CCCCN4C(=O)COc4ccccc4)no3)cc21
48 µg/mL (≈ 94.5 µM)	3.25 ×10⁻⁶ cm/s	0.17	> 100000 nM	> 100000 nM	22.3 nM	15.2 nM	1310 nM	COc1ccc(Cl)cc1S(=O)(=O)N1CCc2ccc(C(=O)Nc3nc(CC(=O)O)cs3)cc21
12 µg/mL (≈ 28.9 µM)	4.18 ×10⁻⁶ cm/s	3.22	> 100000 nM	> 100000 nM	176 nM	235 nM	> 100000 nM	O=C(COc1ccccc1)N1CCCC[C@@H]1c1noc(-c2cnc3ccccc3n2)n1
519 µg/mL (≈ 1020 µM)	2.93 ×10⁻⁶ cm/s	0.13	> 100000 nM	> 100000 nM	53.3 nM	18.4 nM	661 nM	COc1ccc(Cl)cc1S(=O)(=O)N1COc2ccc(C(=O)Nc3nc(CC(=O)O)cs3)cc21
27 µg/mL (≈ 70 µM)	5.95 ×10⁻⁶ cm/s	3.04	> 100000 nM	> 100000 nM	293 nM	1670 nM	> 100000 nM	Cc1nnsc1-c1noc([C@H]2CCCCN2C(=O)COc2ccccc2)n1
51 µg/mL (≈ 102 µM)	1.69 ×10⁻⁶ cm/s	3.19	> 100000 nM	> 100000 nM	54.6 nM	41.8 nM	2400 nM	COc1ccc(C)cc1S(=O)(=O)N1CCCc2ccc(C(=O)Nc3nc(CC(=O)O)cs3)cc21
71 µg/mL (≈ 188 µM)	5.37 ×10⁻⁶ cm/s	2.42	> 100000 nM	> 100000 nM	109 nM	815 nM	> 100000 nM	Nc1cccc(-c2n[nH]c([C@H]3CCCCN3C(=O)COc3ccccc3)n2)c1
127 µg/mL (≈ 292 µM)	2.98 ×10⁻⁶ cm/s	2.64	> 100000 nM	29100 nM	99.3 nM	308 nM	> 100000 nM	CC(=O)NCc1cccc(-c2nc([C@H]3CCCCN3C(=O)COc3ccccc3)no2)c1
6 µg/mL (≈ 12 µM)	2.86 ×10⁻⁶ cm/s	2.98	1420 nM	453 nM	36.7 nM	28.9 nM	6780 nM	COc1ccc(Cl)cc1S(=O)(=O)N1C[C@@H](C)c2ccc(C(=O)Nc3ccc(C(=O)O)cc3)cc21
24 µg/mL (≈ 55.8 µM)	3.98 ×10⁻⁶ cm/s	3.17	> 100000 nM	37300 nM	73.8 nM	164 nM	> 100000 nM	CCn1c(C)nc(Cl)c1-c1noc([C@H]2CCCCN2C(=O)COc2ccccc2)n1

Compound	solubility kinetic [1]	Papp [2]	logD [3]	IC50 [4]	IC50 [5]	IC50 [6]	IC50 [7]	IC50 [8]
COc1ccc(Cl)cc1Cn1cc(C(=O)O)c2ccc(C(=O)Nc3ccccc3)cc21	< 1 µg/mL	0.53 ×10⁻⁶ cm/s	3.13	> 100000 nM	> 100000 nM	99.6 nM	104 nM	> 100000 nM
